Structures can show the parent of a compound that is named as a salt. Where two headings read alike, the source gives them in different places.
Tests used:
[1] = target: muscarinic receptors; experiment: Radio ligand binding: displacement of the muscarinic agonist 3H-Oxotremorine-M (3H-OXO-M), rat cerebral cortex; parameters: species or system Hooded Lister rats; conditions: 2 nM 3H-OXO-M, rat cerebral cortex membranes, 2 mM magnesium chloride, 37° C., 30 min
[2] = target: muscarinic receptors; format: binding, Hooded Lister rats; conditions: 0.27 nM 3H-QNB, rat cerebral cortex membranes, 37° C., 30 min

SMILES: Nc1noc(C=C2CC3CCN(C2)C3)n1 (racemic) [Example E6, (±)E/Z 3-([3-Amino-1,2,4-oxadiazol-5-yl]methin)-1-azabicyclo[3.2.1]octane]
- IC50 [1]: 520 nM
- IC50 [2]: 5700 nM

SMILES: C(=C1CN2CCC1C2)c1cnco1 (racemic) [Example E4, (±)E/Z 3-([1,3-Oxazol-5-yl]methin)-1-azabicyclo[2.2.1]heptane oxalate salt]
- IC50 [1]: 294 nM
- IC50 [2]: 27900 nM

SMILES: C(=C1/CN2CCC1C2)/c1nccs1 (racemic) [Example E10, (±) Z 3-([1,3-Thiazol-2-yl]methin)-1-azabicyclo[2.2.1]heptane oxalate salt]
- IC50 [1]: 165 nM
- IC50 [2]: 2500 nM

SMILES: C(=C1/CN2CCC1C2)/c1ncco1 (racemic) [Example E5, (±) Z 3-([1,3-Oxazol-2-yl]methin)-1-azabicyclo[2.2.1]heptane]
- IC50 [1]: 8.6 nM
- IC50 [2]: 1800 nM

SMILES: Nc1noc(/C=C2\CN3CCC2C3)n1 (racemic) [Example E1, (±) Z 3-([3-Amino-1,2,4-oxadiazol-5-yl]methin)-1-azabicyclo[2.2.1]heptane]
- IC50 [1]: 11.8 nM
- IC50 [2]: 3200 nM

SMILES: Cc1noc(/C=C2\CN3CCC2C3)n1 (racemic) [Example E2, (±) Z 3-([3-Methyl-1,2,4-oxadiazol-5-yl]methin)-1-azabicyclo[2.2.1]heptane oxalate salt]
- IC50 [1]: 30 nM
- IC50 [2]: 1900 nM

— patent publication US5470859A (priority 1989, dated 1995)
